How the values were obtained:
Format in all cases: in vivo
[1] = tested on: Ipomoea hederacea (IPOHE, morning glory); test: Post-emergence herbicidal evaluation; details: 3 weeks after treatment
Experimental: (§1) These acetone solutions are diluted with water and the resulting formulations applied at dosage levels equivalent of about 0.025 to 0.4 kg per hectare of test compound per pot. After spraying the plants are placed on greenhouse benches and are cared for in the usual manner, commensurate with conventional greenhouse practices. From 3 weeks after treatment, the seedling plants are examined and rated according to the rating system provided above. A rating 0 indicates growth as untreated control, a rating 9 indicates death.

[2] = tested on: Setaria viridis (SETVI, green foxtail); test: Post-emergence herbicidal evaluation; details: 3 weeks after treatment
Experimental: as §1

[3] = tested on: Stellaria media (STEME, chickweed); test: Post-emergence herbicidal evaluation; details: 3 weeks after treatment
Experimental: as §1

[4] = tested on: Dolium multiflorum (LOLMU, ryegrass); test: Post-emergence herbicidal evaluation; details: rate 0.100 kg/ha, 3 weeks after treatment
Experimental: as §1

[5] = tested on: Matricaria inodora (MATIN, mayweed); test: Post-emergence herbicidal evaluation; details: 3 weeks after treatment
Experimental: as §1

[6] = tested on: Echinochloa grus galli (ECHCG, barnyard grass); test: Post-emergence herbicidal evaluation; details: 3 weeks after treatment
Experimental: as §1

[7] = tested on: Abutilon theophrasti (ABUTH, velvetleaf); test: Post-emergence herbicidal evaluation; details: 3 weeks after treatment
Experimental: as §1

[8] = tested on: Galium aparine (GALAP, cleaver); test: Post-emergence herbicidal evaluation; details: 3 weeks after treatment
Experimental: as §1

[9] = tested on: Alopecurus myosuroides (ALOMY, black grass); test: Post-emergence herbicidal evaluation; details: 3 weeks after treatment
Experimental: as §1

[10] = tested on: Triticum aestivum (TRZAW, winter wheat); test: Pre-emergence herbicidal evaluation (crop); details: 3 weeks after treatment
Text: (§2) The pre-emergence herbicidal activity of the compounds of the present invention is exemplified by the following test in which the seeds of a variety of monocotyledonous and dicotyledonous plants are seperately mixed with potting soil and planted on top of approximately one inch of soil in separate post. After planting, the pots are sprayed with the selected aqueous acetone solution. containing test compound in sufficient quantity to provide the equivalent of about 0.025 to 0.4 kg per hectare of test compound per pot. The treated pots are then placed on greenhouse benches, watered and cared for in accordance with conventional greenhouse procedures. From 3 weeks after treatment, the tests are terminated and each pot is examined and rated according to the rating system set forth below. [table] [table]

Zea mays (ZEAMX, maize) = test: Pre-emergence herbicidal evaluation (crop); details: 3 weeks after treatment
Text: as §2

[11] = tested on: Glycine max (GLXMA, soyabeans); test: Pre-emergence herbicidal evaluation (crop); details: 3 weeks after treatment
Text: as §2

[12] = tested on: Ipomoea hederacea (IPOHE, morning glory); test: Pre-emergence herbicidal evaluation; details: 3 weeks after treatment
Text: as §2

[13] = tested on: Setaria viridis (SETVI, green foxtail); test: Pre-emergence herbicidal evaluation; details: 3 weeks after treatment
Text: as §2

[14] = tested on: Stellaria media (STEME, chickweed); test: Pre-emergence herbicidal evaluation; details: 3 weeks after treatment
Text: as §2

[15] = tested on: Matricaria inodora (MATIN, mayweed); test: Pre-emergence herbicidal evaluation; details: 3 weeks after treatment
Text: as §2

[16] = tested on: Echinochloa grus galli (ECHCG, barnyard grass); test: Pre-emergence herbicidal evaluation; details: 3 weeks after treatment
Text: as §2

[17] = tested on: Abutilon theophrasti (ABUTH, velvetleaf); test: Pre-emergence herbicidal evaluation; details: 3 weeks after treatment
Text: as §2

[18] = tested on: Galium aparine (GALAP, cleaver); test: Pre-emergence herbicidal evaluation; details: 3 weeks after treatment
Text: as §2

[19] = tested on: Alopecurus myosuroides (ALOMY, black grass); test: Pre-emergence herbicidal evaluation; details: 3 weeks after treatment
Text: as §2

Cc1cc(OCC=CSC(F)(F)F)nc(Oc2cc(C(F)(F)F)nn2C)c1 [Example 2, 2-(1-Methyl-3-trifluoromethylpyrazol-5-yloxy)-4-methyl-6-(3-trifluoromethylthioprop-2-enyloxy)pyridine]
0 (0 - No effect): GLXMA rating ([11]; rate 0.025 kg/ha)
5 (5 - Definite injury): STEME rating ([3]; rate 0.100 kg/ha) | STEME rating ([3]; rate 0.400 kg/ha) | TRZAW rating ([10]; rate 0.400 kg/ha) | ZEAMX rating (Zea mays (ZEAMX, maize); rate 0.100 kg/ha) | ZEAMX rating (Zea mays (ZEAMX, maize); rate 0.400 kg/ha) | IPOHE rating ([12]; rate 0.025 kg/ha) | IPOHE rating ([12]; rate 0.100 kg/ha)
7 (7 - Good herbicidal effect): SETVI rating ([2]; rate 0.025 kg/ha) | ABUTH rating ([7]; rate 0.100 kg/ha) | ABUTH rating ([7]; rate 0.400 kg/ha) | GALAP rating ([8]; rate 0.100 kg/ha) | GALAP rating ([8]; rate 0.400 kg/ha) | ALOMY rating ([9]; rate 0.025 kg/ha) | ALOMY rating ([9]; rate 0.100 kg/ha) | ALOMY rating ([9]; rate 0.400 kg/ha) | ECHCG rating ([16]; rate 0.025 kg/ha) | ABUTH rating ([17]; rate 0.100 kg/ha) | GALAP rating ([18]; rate 0.025 kg/ha)
2 (2 - Slight effect): TRZAW rating ([10]; rate 0.025 kg/ha) | GLXMA rating ([11]; rate 0.100 kg/ha)
6 (6 - Herbicidal effect): MATIN rating ([5]; rate 0.025 kg/ha) | MATIN rating ([5]; rate 0.100 kg/ha) | MATIN rating ([5]; rate 0.400 kg/ha) | ABUTH rating ([7]; rate 0.025 kg/ha) | GALAP rating ([8]; rate 0.025 kg/ha)
4 (4 - Injury): STEME rating ([3]; rate 0.025 kg/ha) | ZEAMX rating (Zea mays (ZEAMX, maize); rate 0.025 kg/ha) | GLXMA rating ([11]; rate 0.400 kg/ha)
8 (8 - Approaching complete kill): IPOHE rating ([1]; rate 0.025 kg/ha) | SETVI rating ([2]; rate 0.100 kg/ha) | SETVI rating ([2]; rate 0.400 kg/ha) | LOLMU rating [4] | ECHCG rating ([6]; rate 0.025 kg/ha) | ECHCG rating ([6]; rate 0.100 kg/ha) | ECHCG rating ([6]; rate 0.400 kg/ha) | IPOHE rating ([12]; rate 0.400 kg/ha) | MATIN rating ([15]; rate 0.025 kg/ha) | MATIN rating ([15]; rate 0.100 kg/ha) | ECHCG rating ([16]; rate 0.100 kg/ha) | ECHCG rating ([16]; rate 0.400 kg/ha) | ABUTH rating ([17]; rate 0.400 kg/ha) | GALAP rating ([18]; rate 0.400 kg/ha) | ALOMY rating ([19]; rate 0.025 kg/ha) | ALOMY rating ([19]; rate 0.100 kg/ha) | ALOMY rating ([19]; rate 0.400 kg/ha)
3 (3 - Moderate effect): TRZAW rating ([10]; rate 0.100 kg/ha) | ABUTH rating ([17]; rate 0.025 kg/ha)
9 (9 - Complete kill): IPOHE rating ([1]; rate 0.100 kg/ha) | IPOHE rating ([1]; rate 0.400 kg/ha) | SETVI rating ([13]; rate 0.025 kg/ha) | SETVI rating ([13]; rate 0.100 kg/ha) | SETVI rating ([13]; rate 0.400 kg/ha) | STEME rating ([14]; rate 0.025 kg/ha) | STEME rating ([14]; rate 0.100 kg/ha) | STEME rating ([14]; rate 0.400 kg/ha) | MATIN rating ([15]; rate 0.400 kg/ha)

— patent US6534447B1, “Herbicidal pyridine compounds” (BASF Aktiengesellschaft, priority 1999, dated 2003)
